Laboratory results reported in patent US9156877B2, “17-hydroxy-17-pentafluorethyl-estra-4,9(10)-dien-11-benzylidene derivatives, methods for the production thereof and use thereof for treating diseases” (Bayer Intellectual Property GmbH, priority 2009, dated 2015).
pIC50: −log10 of the molar value. Converted amounts (≈) assume the structure as drawn.

Columns and labels:
[1] = compared to the compounds of the invention; cited from earlier work
[2] = compared to the compounds of the invention; cited from earlier work; remark: listed apart in the source
[3] = target: T1, human progesterone receptor A (Homo sapiens, UniProt P06401); test: Progesterone receptor-antagonistic action in stably transfected SK-N-MC cells with MMTV-LUC reporter (PR-A); format: cell-based; conditions: antagonistic potency against 0.1 nmol/l promegestone, 24 hours, luciferase
T1 construct: expressed in transfected cells; host or cells: SK-N-MC human neuroblastoma cells, stably transfected with pRChPR-A-neo and pMMTV-LUC
T1 sequence (P06401 1-769 isoform P06401-2): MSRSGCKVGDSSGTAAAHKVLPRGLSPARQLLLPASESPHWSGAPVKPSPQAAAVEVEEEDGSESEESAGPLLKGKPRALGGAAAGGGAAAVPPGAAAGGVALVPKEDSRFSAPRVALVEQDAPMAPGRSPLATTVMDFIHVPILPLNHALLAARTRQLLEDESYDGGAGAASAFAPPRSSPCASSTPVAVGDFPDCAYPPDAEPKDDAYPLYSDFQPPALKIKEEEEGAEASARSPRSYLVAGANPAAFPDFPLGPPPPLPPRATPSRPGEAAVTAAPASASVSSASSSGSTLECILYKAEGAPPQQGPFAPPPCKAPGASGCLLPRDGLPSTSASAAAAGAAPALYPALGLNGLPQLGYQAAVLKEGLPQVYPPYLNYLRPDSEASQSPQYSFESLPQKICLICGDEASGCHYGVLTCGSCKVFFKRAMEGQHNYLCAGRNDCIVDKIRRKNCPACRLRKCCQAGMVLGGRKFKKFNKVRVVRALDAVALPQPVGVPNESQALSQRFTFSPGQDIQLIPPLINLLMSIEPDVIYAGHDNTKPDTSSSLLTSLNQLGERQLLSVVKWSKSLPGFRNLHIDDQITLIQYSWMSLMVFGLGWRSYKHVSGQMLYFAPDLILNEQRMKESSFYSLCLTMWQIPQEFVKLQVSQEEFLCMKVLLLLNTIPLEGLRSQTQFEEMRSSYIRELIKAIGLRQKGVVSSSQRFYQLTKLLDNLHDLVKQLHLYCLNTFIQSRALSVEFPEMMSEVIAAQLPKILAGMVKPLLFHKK
Method in brief: (§1)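 SK-N-MC neuroblastoma cells stably expressing human PR-A or PR-B plus MMTV-LUC reporter, treated 24 h with test compound (0.01 nmol/l–[…]). Antagonist mode used co-treatment with 0.1 nmol/l promegestone; luciferase in lysates read as RLU, expressed as % efficacy and IC50/EC50.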

[4] = target: T2, human progesterone receptor B (Homo sapiens, UniProt P06401); test: Progesterone receptor-antagonistic action in stably transfected SK-N-MC cells with MMTV-LUC reporter (PR-B); format: cell-based; conditions: antagonistic potency against 0.1 nmol/l promegestone, 24 hours, luciferase
T2 construct: expressed in transfected cells; host or cells: SK-N-MC human neuroblastoma cells, stably transfected with pRChPR-B-neo and pMMTV-LUC
T2 sequence (P06401 1-933): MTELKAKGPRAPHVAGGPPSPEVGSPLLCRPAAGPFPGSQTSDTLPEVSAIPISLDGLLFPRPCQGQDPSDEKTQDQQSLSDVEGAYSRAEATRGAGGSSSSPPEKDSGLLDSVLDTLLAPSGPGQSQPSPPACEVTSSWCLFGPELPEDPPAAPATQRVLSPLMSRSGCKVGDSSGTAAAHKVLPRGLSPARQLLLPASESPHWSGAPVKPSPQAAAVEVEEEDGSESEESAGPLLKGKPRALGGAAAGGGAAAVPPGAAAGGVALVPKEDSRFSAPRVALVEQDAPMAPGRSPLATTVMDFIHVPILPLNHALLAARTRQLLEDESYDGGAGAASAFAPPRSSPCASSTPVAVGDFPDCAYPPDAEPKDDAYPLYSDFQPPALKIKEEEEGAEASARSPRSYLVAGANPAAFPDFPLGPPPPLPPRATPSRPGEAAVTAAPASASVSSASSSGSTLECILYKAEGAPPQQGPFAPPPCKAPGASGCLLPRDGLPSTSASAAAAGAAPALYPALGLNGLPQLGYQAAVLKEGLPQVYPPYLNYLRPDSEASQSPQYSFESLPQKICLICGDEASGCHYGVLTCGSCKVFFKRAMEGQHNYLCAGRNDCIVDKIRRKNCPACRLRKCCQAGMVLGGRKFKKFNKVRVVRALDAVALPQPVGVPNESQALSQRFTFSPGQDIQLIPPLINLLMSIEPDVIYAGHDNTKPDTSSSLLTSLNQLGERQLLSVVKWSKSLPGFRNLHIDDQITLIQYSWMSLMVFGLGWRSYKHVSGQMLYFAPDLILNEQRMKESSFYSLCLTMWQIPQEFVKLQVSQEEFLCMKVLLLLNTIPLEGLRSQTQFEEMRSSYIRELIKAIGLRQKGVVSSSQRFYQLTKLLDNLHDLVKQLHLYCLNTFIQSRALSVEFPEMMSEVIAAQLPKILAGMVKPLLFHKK
Method in brief: as §1

[5] = Metabolic stability in human liver microsomes; format: in vitro ADME; conditions: for Predicted clearance [l/h/kg] Human: 1 μM, well-stirred model
Method in brief: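 Human liver microsomes (0.5 mg/ml protein) were incubated with compound at 1 μM final and an NADPH-generating system in 100 mM phosphate pH 7.4 at 37 °C. Six samples (2–60 min) were methanol-quenched and measured by LC-MS/MS. Degradation half-life gave intrinsic clearance; Fmax assumed 100% absorption and first pass equal to microsomal metabolism.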

[6] = Metabolic stability in rat liver microsomes; format: in vitro ADME; conditions: for Predicted clearance [l/h/kg] Rat: well-stirred model
Method in brief: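 Liver microsomes (solution at 0.5 mg/ml protein before cofactor addition) with 1 μM compound (final) and an NADPH-generating system at 37 °C, 100 mM phosphate pH 7.4, were sampled at 6 time points (2-60 min), methanol-quenched and analysed by LC-MS/MS. Half-life gave intrinsic clearance, and Fmax assumed 100% absorption and purely microsomal first pass.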

[7] = Solubility in aqueous medium at pH 7.4; format: physicochemical; conditions: for solubility (in words): aqueous medium under physiological conditions; for solubility: aqueous medium, pH 7.4, aqueous buffer
Excerpt: In addition, some compounds have an unusually good solubility, for this active ingredient class, in aqueous medium under physiological conditions (Table 2).

[8] = tested on: pregnant rats; test: Abortion test on female rats; format: in vivo, rat; conditions: d5-d7 p.c., autopsy d9 p.c.
Procedure: Abortion Test on Female Rats
The action of progesterone and of the progesterone receptor is a fundamental precondition for successful pregnancy or gestation in mammals. The progesterone-antagonistic action of the inventive compounds was tested on pregnant rats (6 rats per group) on days 5 to 7 post coitum under conventional housing and feeding conditions.
After successful mating, the pregnant animals (presence of sperm in the vaginal smear on day 1 of pregnancy=d1 p.c.) were randomized and divided into the treatment group and the control group. The animals then each received subcutaneously or orally 0.15; 0.5; 1.5 or 5 mg/kg of the test compound or 1.0 ml/kg of vehicle (benzyl benzoate/castor oil: 1+4 [v/v]) daily from day 5 to day 7 (d5-d7 p.c.).
Autopsy was conducted on day 9 (d9 p.c.). As a characteristic of progesterone receptor-antagonistic action, the uterus was examined for the presence of nidation sites. Complete absence, or else the presence of pathological, haemorrhagic or otherwise abnormal nidation sites, on day 9 (d9 p.c.) was considered as abortion.

SMILES	in vivo half-life (in words) [1]	water solubility (in words) [2]	pIC50 [3]	pIC50 [4]	Predicted Fmax [%] (maximum oral bioavailability) Human [5]	Predicted clearance [l/h/kg] Human [5]	Predicted Fmax [%] (maximum oral bioavailability) Rat [6]	Predicted clearance [l/h/kg] Rat [6]	solubility (in words) [7]	solubility [7]	Abortion rate [%] ([8]; daily dose 0.5 mg/kg p.o.)	Abortion rate [%] ([8]; daily dose 1.5 mg/kg p.o.)	Abortion rate [%] ([8]; daily dose 5.0 mg/kg p.o.)
CC(=O)c1ccc(C2CC3(C)C(CCC3(O)C(F)(F)C(F)(F)F)C3CCC4=CC(=O)CCC4=C23)cc1 (stereo not drawn) [11-β-(4-acetylphenyl)-20,20,21,21,21-pentafluoro-17-hydroxynor-17-pregna-4,9-dien-3-one]	relatively short	poor	–	–	–	–	–	–	–	–	–	–	–
C[C@]12C[C@H](c3ccc(/C=C/c4ccc(C(=O)O)cc4)cc3)C3=C4CCC(=O)C=C4CC[C@H]3[C@@H]1CC[C@@]2(O)C(F)(F)C(F)(F)F [Example 29, 4-{(E)-2-[4-((8S,11R,13S,14S,17S)-17-hydroxy-13-methyl-3-oxo-17-pentafluoroethyl-2,3,6,7,8,11,12,13,14,15,16,17-dodecahydro-1H-cyclopenta[a]phenanthren-11-yl)phenyl]vinyl}benzoic acid]	–	–	10.10	10.05	94%	0.08 L/h/kg	100%	0.0 L/h/kg	improved	102 µg/mL (≈ 166 µM)	0%	16.7%	100.0%
C[C@]12C[C@H](c3ccc(/C=C/C=C/C(=O)O)cc3)C3=C4CCC(=O)C=C4CC[C@H]3[C@@H]1CC[C@@]2(O)C(F)(F)C(F)(F)F [Example 17, (2E,4E)-5-[4-((8S,11R,13S,14S,17S)-17-hydroxy-13-methyl-3-oxo-17-pentafluoroethyl-2,3,6,7,8,11,12,13,14,15,16,17-dodecahydro-1H-cyclopenta[a]phenanthren-11-yl)phenyl]penta-2,4-dienoic acid]	–	–	10.00	9.15	33%	0.89 L/h/kg	91%	0.4 L/h/kg	improved	> 188 µg/mL	0%	16.7%	100.0%
